Results from patent US7320972B2, “4-Biarylyl-1-phenylazetidin-2-ones” (Microbia, Inc., priority 2003, dated 2008).

System: cholesterol absorption (serum 3H-cholesterol)
Experiment: In Vivo Assay of Hypolipidemic Agents using the Rat Cholesterol Absorption Model
Parameters: species or system Sprague-Dawley rats
Conditions: po, peroral, 1 mg/kg, serum 3H-cholesterol 3 h after cholesterol dose, vs vehicle control
Protocol: In Vivo Assay of Hypolipidemic Agents using the Rat Cholesterol Absorption Model. This model is based on models described by Burnett et al (2002), Bioorg. Med. Chem. Lett. 2002 Feb. 11;12(3):315-8 and J. Lipid Res. 1999 October;40(10):1747-57. Female Sprague-Dawley rats weighing 150-250 g are separated into groups of […] and fasted overnight. The animals (4-6/group) are dosed perorally with 300 μL test compounds in olive oil or suitable vehicle. Thirty minutes later, 3-5 microCuries ^3H-cholesterol per rat are delivered perorally in 300 μL olive oil. After three hours, 200 μL serum is collected, vortexed with scintillation fluid, and measured for radioactivity in a scintillation counter. Percent inhibition is defined as 100*(1−Ctest/Cctrl), where Ctest and Cctl refer to ^3H levels in serum for the test compound and for the vehicle only control, respectively. Percent inhibition values are reported for a fixed dose. The ED50 is the dose at which the half-maximal effect on serum ^3H levels is observed for a given test compound.
Representative compounds of the invention were tested in the Rat Cholesterol Absorption model above.

Structure (SMILES) | inhibition in vivo at 1 mg/kg [%]
CN(C)c1cccc(-c2ccc([C@@H]3[C@@H](CC[C@H](O)c4ccc(F)cc4)C(=O)N3c3ccc(F)cc3)cc2)c1 [Example 83, (3R,4S)-4-[3′-(dimethylamino)biphenyl-4-yl]-1-(4-fluorophenyl)-3-[(3S)-3-(4-fluorophenyl)-3-hydroxypropyl]azetidin-2-one] | 38
C=Cc1ccc(-c2ccc([C@@H]3[C@@H](CC[C@H](O)c4ccc(F)cc4)C(=O)N3c3ccc(F)cc3)cc2)cc1 [Example 84, (3R,4S)-1-(4-fluorophenyl)-3-[(3S)-3-(4-fluorophenyl)-3-hydroxypropyl]-4-(4′-vinylbiphenyl-4-yl)azetidin-2-one] | 51
COc1ccc(C=O)c(-c2ccc([C@@H]3[C@@H](CC[C@H](O)c4ccc(F)cc4)C(=O)N3c3ccc(F)cc3)cc2)c1 [Example 85, 4′-{(2S,3R)-1-(4-fluorophenyl)-3-[(3S)-3-(4-fluorophenyl)-3-hydroxypropyl]-4-oxoazetidin-2-yl}-5-methoxybiphenyl-2-carbaldehyde] | 15
Nc1cccc(-c2ccc([C@@H]3[C@@H](CC[C@H](O)c4ccc(F)cc4)C(=O)N3c3ccc(F)cc3)cc2)c1 [Example 86, (3R,4S)-4-(3′-aminobiphenyl-4-yl)-1-(4-fluorophenyl)-3-[(3S)-3-(4-fluorophenyl)-3-hydroxypropyl]azetidin-2-one] | 35
O=C1[C@H](CC[C@H](O)c2ccc(F)cc2)[C@@H](c2ccc(-c3ccc4c(c3)OCCO4)cc2)N1c1ccc(F)cc1 [Example 87, (3R,4S)-4-[4-(2,3-dihydro-1,4-benzodioxin-6-yl)phenyl]-1-(4-fluorophenyl)-3-[(3S)-3-(4-fluorophenyl)-3-hydroxypropyl]azetidin-2-one] | 59
O=C(O)Cc1ccc(-c2ccc([C@@H]3[C@@H](CC[C@H](O)c4ccc(F)cc4)C(=O)N3c3ccc(F)cc3)cc2)cc1 [Example 88, (4′-{(2S,3R)-1-(4-fluorophenyl)-3-[(3S)-3-(4-fluorophenyl)-3-hydroxypropyl]-4-oxoazetidin-2-yl}biphenyl-4-yl)acetic Acid] | 30
COC(=O)c1ccc(-c2ccc([C@@H]3[C@@H](CC[C@H](O)c4ccc(F)cc4)C(=O)N3c3ccc(F)cc3)cc2)cc1 [Example 89, methyl 4′-{(2S,3R)-1-(4-fluorophenyl)-3-[(3S)-3-(4-fluorophenyl)-3-hydroxypropyl]-4-oxoazetidin-2-yl}biphenyl-4-carboxylate] | 45
Cc1cc(C)cc(-c2ccc([C@@H]3[C@@H](CC[C@H](O)c4ccc(F)cc4)C(=O)N3c3ccc(F)cc3)cc2)c1 [Example 90, (3R,4S)-4-(3′,5′-dimethylbiphenyl-4-yl)-1-(4-fluorophenyl)-3-[(3S)-3-(4-fluorophenyl)-3-hydroxypropyl]azetidin-2-one] | 27
O=C1[C@H](CC[C@H](O)c2ccc(F)cc2)[C@@H](c2ccc(-c3ccc4ccccc4c3)cc2)N1c1ccc(F)cc1 [Example 91, (3R,4S)-1-(4-fluorophenyl)-3-[(3S)-3-(4-fluorophenyl)-3-hydroxypropyl]-4-[4-(2-naphthyl)phenyl]azetidin-2-one] | 56
O=C1[C@H](CC[C@H](O)c2ccc(F)cc2)[C@@H](c2ccc(-c3cccc(C(F)(F)F)c3)cc2)N1c1ccc(F)cc1 [Example 92, (3R,4S)-1-(4-fluorophenyl)-3-[(3S)-3-(4-fluorophenyl)-3-hydroxypropyl]-4-[3′-(trifluoromethyl)biphenyl-4-yl]azetidin-2-one] | 17
Cc1cccc(-c2ccc([C@@H]3[C@@H](CC[C@H](O)c4ccc(F)cc4)C(=O)N3c3ccc(F)cc3)cc2)c1 [Example 93, (3R,4S)-1-(4-fluorophenyl)-3-[(3S)-3-(4-fluorophenyl)-3-hydroxypropyl]-4-(3′-methylbiphenyl-4-yl)azetidin-2-one] | 28
Cc1cc(-c2ccc([C@@H]3[C@@H](CC[C@H](O)c4ccc(F)cc4)C(=O)N3c3ccc(F)cc3)cc2)ccc1F [Example 94, (3R,4S)-4-(4′-fluoro-3′-methylbiphenyl-4-yl)-1-(4-fluorophenyl)-3-[(3S)-3-(4-fluorophenyl)-3-hydroxypropyl]azetidin-2-one] | 30
O=C1[C@H](CC[C@H](O)c2ccc(F)cc2)[C@@H](c2ccc(-c3cccc(O[C@H]4O[C@@H](CO)[C@H](O)[C@@H](O)[C@@H]4O)c3)cc2)N1c1ccc(F)cc1 [Example 95, 4′-{(2S,3R)-1-(4-fluorophenyl)-3-[(3S)-3-(4-fluorophenyl)-3-hydroxypropyl]-4-oxoazetidin-2-yl}biphenyl-3-yl β-L-glucopyranoside] | 57
COc1ccc(-c2ccc([C@@H]3[C@@H](CC[C@H](O)c4ccc(F)cc4)C(=O)N3c3ccc(F)cc3)cc2)c(OC)c1OC [Example 96, (3R,4S)-1-(4-fluorophenyl)-3-[(3S)-3-(4-fluorophenyl)-3-hydroxypropyl]-4-(2′,3′,4′-trimethoxybiphenyl-4-yl)azetidin-2-one] | 69
COc1ccc(-c2ccc([C@@H]3[C@@H](CC[C@H](O)c4ccc(F)cc4)C(=O)N3c3ccc(F)cc3)cc2)c(OC)c1 [Example 97, (3R,4S)-4-(2′,4′-dimethoxybiphenyl-4-yl)-1-(4-fluorophenyl)-3-[(3S)-3-(4-fluorophenyl)-3-hydroxypropyl]azetidin-2-one] | 40
Cc1ccccc1-c1ccc([C@@H]2[C@@H](CC[C@H](O)c3ccc(F)cc3)C(=O)N2c2ccc(F)cc2)cc1 [Example 98, (3R,4S)-1-(4-fluorophenyl)-3-[(3S)-3-(4-fluorophenyl)-3-hydroxypropyl]-4-(2′-methylbiphenyl-4-yl)azetidin-2-one] | 7
O=Cc1ccc(-c2ccc([C@@H]3[C@@H](CC[C@H](O)c4ccc(F)cc4)C(=O)N3c3ccc(F)cc3)cc2)cc1 [Example 99, 4′-{(2S,3R)-1-(4-fluorophenyl)-3-[(3S)-3-(4-fluorophenyl)-3-hydroxypropyl]-4-oxoazetidin-2-yl}biphenyl-4-carbaldehyde] | 38
CCOc1cccc(-c2ccc([C@@H]3[C@@H](CC[C@H](O)c4ccc(F)cc4)C(=O)N3c3ccc(F)cc3)cc2)c1 [Example 100, (3R,4S)-4-(3′-ethoxybiphenyl-4-yl)-1-(4-fluorophenyl)-3-[(3S)-3-(4-fluorophenyl)-3-hydroxypropyl]azetidin-2-one] | 54
CCOc1ccc(-c2ccc([C@@H]3[C@@H](CC[C@H](O)c4ccc(F)cc4)C(=O)N3c3ccc(F)cc3)cc2)cc1 [Example 101, (3R,4S)-4-(4′-ethoxybiphenyl-4-yl)-1-(4-fluorophenyl)-3-[(3S)-3-(4-fluorophenyl)-3-hydroxypropyl]azetidin-2-one] | 41
COc1cc(-c2ccc([C@@H]3[C@@H](CC[C@H](O)c4ccc(F)cc4)C(=O)N3c3ccc(F)cc3)cc2)ccc1O [Example 102, (3R,4S)-1-(4-fluorophenyl)-3-[(3S)-3-(4-fluorophenyl)-3-hydroxypropyl]-4-(4′-hydroxy-3′-methoxybiphenyl-4-yl)azetidin-2-one] | 56
CCCOc1cccc(-c2ccc([C@@H]3[C@@H](CC[C@H](O)c4ccc(F)cc4)C(=O)N3c3ccc(F)cc3)cc2)c1 [Example 103, (3R,4S)-1-(4-fluorophenyl)-3-[(3S)-3-(4-fluorophenyl)-3-hydroxypropyl]-4-(3′-propoxybiphenyl-4-yl)azetidin-2-one] | 21
O=Cc1ccc(O)cc1-c1ccc([C@@H]2[C@@H](CC[C@H](O)c3ccc(F)cc3)C(=O)N2c2ccc(F)cc2)cc1 [Example 104, 4′-{(2S,3R)-1-(4-fluorophenyl)-3-[(3S)-3-(4-fluorophenyl)-3-hydroxypropyl]-4-oxoazetidin-2-yl}-5-hydroxybiphenyl-2-carbaldehyde] | 52
CC(C)Oc1cccc(-c2ccc([C@@H]3[C@@H](CC[C@H](O)c4ccc(F)cc4)C(=O)N3c3ccc(F)cc3)cc2)c1 [Example 105, (3R,4S)-1-(4-fluorophenyl)-3-[(3S)-3-(4-fluorophenyl)-3-hydroxypropyl]-4-(3′-isopropoxybiphenyl-4-yl)azetidin-2-one] | 15
O=C(O)c1cc(-c2ccc([C@@H]3[C@@H](CC[C@H](O)c4ccc(F)cc4)C(=O)N3c3ccc(F)cc3)cc2)ccc1O [Example 106, 4′-{(2S,3R)-1-(4-fluorophenyl)-3-[(3S)-3-(4-fluorophenyl)-3-hydroxypropyl]-4-oxoazetidin-2-yl}-4-hydroxybiphenyl-3-carboxylic Acid] | 66
COc1cc(OC)cc(-c2ccc([C@@H]3[C@@H](CC[C@H](O)c4ccc(F)cc4)C(=O)N3c3ccc(F)cc3)cc2)c1 [Example 107, (3R,4S)-4-(3′,5′-dimethoxybiphenyl-4-yl)-1-(4-fluorophenyl)-3-[(3S)-3-(4-fluorophenyl)-3-hydroxypropyl]azetidin-2-one] | 49
O=C1[C@H](CC[C@H](O)c2ccc(F)cc2)[C@@H](c2ccc(-c3ccc(O)cc3O)cc2)N1c1ccc(F)cc1 [Example 108, (3R,4S)-4-(2′,4′-dihydroxybiphenyl-4-yl)-1-(4-fluorophenyl)-3-[(3S)-3-(4-fluorophenyl)-3-hydroxypropyl]azetidin-2-one] | 69
